Experimental data as given in patent US20260109731A1, “NE[…] USE THEREOF” (HUNAN MINGRUI PHARMACEUTICAL CO., LTD., priority 2023, published 2026).

Experiments:
[1] = Pharmacokinetic analysis of oral gavage administration in female rats; conditions: for bioavailability: oral
Experimental: (§1) • Female SD rats (body weight: 200 g to 220 g) were purchased from BEIJING HFK BIOSCIENCE CO., LTD.
60 female SD rats were divided into two groups (Aoral and Boral), with 30 rats per group (5 rats per blood collection time point). The drugs Aoral and Boral were administered via oral gavage administration at 12 mg/kg each (about 1.6 mL of drug solution). Blood was collected from the orbital venous plexus at each time point (5 min, 30 min, 1 h, 2 h, 4 h, and 8 h) after administration, respectively, anticoagulated with heparin, and centrifuged, and then the plasma was separated and stored at −80° C. for later testing. At 8 h after blood collection, the animals were sacrificed, and the brain and Liver tissues were taken and stored at −80° C. for later testing.
(§2) 100 μL of plasma sample, 10 μL of internal standard solution (100 ng/mL testosterone D-3 solution), and 310 μL of acetonitrile were accurately measured, uniformly mixed by vortexing, and centrifuged (14000 rpm, 4° C.), and a resulting supernatant was taken and detected using UPLC-MS/MS (the analysis method was the same as that in pharmacokinetic analysis in mice).
(§3) About 100 mg of brain or liver tissue sample was taken, and accurately weighed. 100 μL of water and 400 μL acetonitrile were accurately added thereto, and a resulting mixture was subjected to homogenization. 100 μL of brain or liver tissue homogenate, 10 μL of internal standard solution (100 ng/mL testosterone D-3 solution), and 310 μL of acetonitrile were accurately measured, uniformly mixed by vortexing, and centrifuged (14000 rpm, 4° C.), and a resulting supernatant was taken and detected using UPLC-MS/MS (the analysis method was the same as that in pharmacokinetic analysis in mice).

[2] = Pharmacokinetic analysis of tail vein administration in female rats; conditions: for clearance / half-life: plasma
Experimental: as §1
60 female SD rats were divided into two groups (Aintravenous and Bintravenous), with 30 rats per group (5 rats per blood collection time point). The drugs Aintravenous and Bintravenous were administered via tail vein injection at 3 mg/kg each (about 1.2 mL of drug solution). Blood was collected from the orbital venous plexus at time points (5 min, 30 min, 1 h, 2 h, 4 h, and 8 h) after administration, respectively, anticoagulated with heparin, and centrifuged, and then the plasma was separated and stored at −80° C. for later testing. At 8 h after blood collection, the animals were sacrificed, and the brain and liver tissues were taken and stored at −80° C. for later testing.
as §2, §3

[3] = female, SD, rat, plasma, 12 mg/kg
[4] = female SD rats, tail vein, 3 mg/kg, 8 h after administration

Row | Compound | level of the administered compound in the liver tissue (for compound 1 the sentence prints: in the plasma) ([1]; female SD rats, oral administration, 12 mg/kg, 8 h after administration) | level in plasma and brain tissue at all time points ([1]; female SD rats, oral gavage, 12 mg/kg) | bioavailability [1, 3] [%] | level of the administered compound in the liver ([2]; female SD rats, intravenous (tail vein), 3 mg/kg, 8 h after administration) | concentration in brain tissue [2, 4] | concentration in plasma [2, 4] | clearance ([2]; female, SD, rat, iv, 3 mg/kg) [mL/min/kg] | half-life ([2]; female, SD, rat, iv, 3 mg/kg) [min] | Oral bioavailability ([1]; female SD rats, oral gavage 12 mg/kg vs tail vein 3 mg/kg) [%] | clearance ([1]; female SD rats, oral gavage, 12 mg/kg, sesame oil solution) [mL/min/kg] | concentration at 8 h ([1]; female, SD, rat, brain, po, 12 mg/kg) [ng/g] | Kp at 8 h ([1]; female, SD, rat, brain/plasma, po, 12 mg/kg) | concentration at 8 h ([1]; female, SD, rat, liver, po, 12 mg/kg) [ng/g] | Tmax ([1]; female, SD, rat, plasma, po, 12 mg/kg) [min] | level of allopregnanolone in the liver after administration of compound 1 ([2]; female SD rats, intravenous compound 1, 3 mg/kg, 8 h) | concentration at 8 h ([2]; female, SD, rat, brain, intravenous, 3 mg/kg) [ng/g] | Kp at 8 h ([2]; female, SD, rat, brain/plasma, intravenous, 3 mg/kg) | concentration at 8 h ([2]; female, SD, rat, liver, iv, 3 mg/kg) [ng/g]
1 | CC(=O)[C@H]1CC[C@H]2[C@@H]3CC[C@H]4C[C@H](O)CC[C@]4(C)[C@H]3CC[C@]12C [Allopregnanolone, 5α-pregnan-3α-ol-20-one, reference compound] | undetectable | undetectable | 0 | undetectable | undetectable | undetectable | 109 | 52.2 |  |  |  |  |  |  |  |  |  | 
2 | CC(=O)[C@H]1CC[C@H]2[C@@H]3CC[C@H]4C[C@H](O[N+](=O)[O-])CC[C@]4(C)[C@H]3CC[C@]12C [Compound 1] |  |  | > 65 |  |  |  | 87.8 | 57.6 | >65 | 9.67 | 1640 | 2.95 | 3700 | > 480 | undetectable | 209 | 6.68 | 193
